Assays:
E-selectin = target: T1, E-selectin (Homo sapiens, UniProt P16581); experiment: Tested in vitro to inhibit cell adhesion of HL-60 cells to recombinant human soluble Selectin E; assay type: cell-based
T1 sequence (P16581 whole entry): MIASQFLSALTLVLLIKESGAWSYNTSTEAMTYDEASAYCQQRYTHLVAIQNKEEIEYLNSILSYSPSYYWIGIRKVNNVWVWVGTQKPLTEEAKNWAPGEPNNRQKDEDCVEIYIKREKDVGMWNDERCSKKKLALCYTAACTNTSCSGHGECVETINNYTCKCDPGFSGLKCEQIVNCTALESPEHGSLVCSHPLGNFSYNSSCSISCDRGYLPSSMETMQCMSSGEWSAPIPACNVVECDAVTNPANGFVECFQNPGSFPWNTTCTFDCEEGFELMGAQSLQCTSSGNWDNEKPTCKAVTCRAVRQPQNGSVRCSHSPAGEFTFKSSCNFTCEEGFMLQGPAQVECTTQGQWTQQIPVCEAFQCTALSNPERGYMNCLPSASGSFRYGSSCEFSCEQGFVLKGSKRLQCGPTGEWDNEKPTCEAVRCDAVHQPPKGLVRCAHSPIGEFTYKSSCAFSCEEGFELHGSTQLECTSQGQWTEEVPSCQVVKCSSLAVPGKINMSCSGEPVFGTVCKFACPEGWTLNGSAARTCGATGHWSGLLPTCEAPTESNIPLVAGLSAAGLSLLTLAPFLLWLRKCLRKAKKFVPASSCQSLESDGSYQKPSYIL

Mus musculus = experiment: Tested in vivo for the inhibition of LTA -induced neutrophil accumulation into pleural cavity of mice at a dose of 30 mg/kg; assay type: functional

IC50 (E-selectin) | Structure (SMILES) | inhibition in vivo at 30 mg/kg (Mus musculus)
1500 mg/L | CCO[C@@H]1O[C@@H](CO)[C@@H](O[C@@H]2O[C@@H](CO)[C@H](O)[C@H](O[C@]3(C(=O)O)C[C@@H](O)[C@@H](NC(C)=O)[C@H]([C@H](O)[C@H](O)CO)O3)[C@@H]2O)[C@H](O[C@@H]2O[C@@H](C)[C@@H](O)[C@H](O)[C@@H]2O)[C@@H]1NC(C)=O | 38%
100 mg/L | C=CC(=O)NCCCCCCO[C@@H]1O[C@@H](CO)[C@@H](O[C@@H]2O[C@@H](CO)[C@H](O)[C@H](O[C@]3(C(=O)[O-])C[C@@H](O)[C@@H](NC(C)=O)[C@H]([C@H](O)[C@H](O)CO)O3)[C@@H]2O)[C@H](O[C@@H]2O[C@@H](C)[C@@H](O)[C@H](O)[C@@H]2O)[C@@H]1NC(=O)c1ccc2ccccc2c1.[Na+] | 35%
